Assay results reported in patent publication US20260297080A1, “BICYCLIC COMPOUNDS AS CDK INHIBITORS” (BeOne Medicines I GmbH, priority 2022, published 2026).

Key:
[1] = molecular target: CDK1/Cyclin B1 (Homo sapiens, UniProt P06493); assay: CDK1/Cyclin B1 Biochemical Assay (TR-FRET), 0.015 mM ATP; details: 0.15 μM Rb (Ser780)-biotin substrate, pH7.0, 60 min preincubation, 120 min reaction, room temperature
Method in brief: (§1)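 TR-FRET assay with 0.15 μM Rb (Ser780)-biotin substrate and 0-10 μM compound in 50 mM HEPES pH7.0, 50 mM MgCl2, 1 mM DTT. ATP was 0.060 mM for CDK2/Cyclin E1 and 0.015 mM for CDK1/Cyclin B1. Kinase was preincubated with compound 60 min, reacted 120 min at room temperature, and IC50 was fitted (four-parameter) from the 665/620 nm ratio.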

[2] = molecular target: CDK2/Cyclin E1 (Homo sapiens, UniProt P24941); assay: CDK2/Cyclin E1 Biochemical Assay (TR-FRET), 0.060 mM ATP; details: 0.15 μM Rb (Ser780)-biotin substrate, pH7.0, 60 min preincubation, 120 min reaction, room temperature
Method in brief: as §1

Chain of CDK1/Cyclin B1 (P06493 whole entry): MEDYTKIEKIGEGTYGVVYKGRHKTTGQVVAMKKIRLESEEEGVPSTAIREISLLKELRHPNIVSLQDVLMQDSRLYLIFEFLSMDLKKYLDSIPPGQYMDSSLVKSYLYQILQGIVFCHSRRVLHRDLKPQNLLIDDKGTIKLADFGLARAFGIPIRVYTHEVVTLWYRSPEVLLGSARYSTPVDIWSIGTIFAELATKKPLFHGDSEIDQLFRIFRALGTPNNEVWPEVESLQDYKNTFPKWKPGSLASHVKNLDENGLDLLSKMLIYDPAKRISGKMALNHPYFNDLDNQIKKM
Chain of CDK1/Cyclin B1 (P14635 whole entry partner): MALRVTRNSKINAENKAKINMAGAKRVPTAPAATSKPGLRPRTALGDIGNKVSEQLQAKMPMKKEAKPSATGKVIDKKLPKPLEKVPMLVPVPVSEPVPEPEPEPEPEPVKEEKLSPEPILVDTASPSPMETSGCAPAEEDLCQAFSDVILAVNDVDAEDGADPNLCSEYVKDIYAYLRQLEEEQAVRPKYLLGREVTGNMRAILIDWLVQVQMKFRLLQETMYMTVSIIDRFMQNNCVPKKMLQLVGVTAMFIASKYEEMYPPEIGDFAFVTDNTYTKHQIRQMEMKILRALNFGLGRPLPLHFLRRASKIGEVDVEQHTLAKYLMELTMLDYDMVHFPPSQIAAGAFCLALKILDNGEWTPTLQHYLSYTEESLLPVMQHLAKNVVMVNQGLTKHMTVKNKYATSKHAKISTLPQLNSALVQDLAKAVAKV

SMILES	IC50 [1] [nM]	IC50 [2] [nM]
COc1cc2c(cc1Nc1cc([C@@H]3CC[C@H](OC(=O)NC(C)C)C3)[nH]n1)C(C)(C)NS2(=O)=O (relative stereo) [Example 23, cis-3-(3-((6-methoxy-3,3-dimethyl-1,1-dioxido-2,3-dihydrobenzo[d]isothiazol-5-yl)amino)-1H-pyrazol-5-yl)cyclopentyl isopropylcarbamate]	1170	244
[2H]C([2H])([2H])N1c2ccc(Nc3cc([C@@H]4CC[C@H](OC(=O)NC(C)C)C4)[nH]n3)c(F)c2CS1(=O)=O (single isomer, unassigned) [Example 267a, cis-3-(3-((4-fluoro-1-(methyl-d3)-2,2-dioxido-1,3-dihydrobenzo[c]isothiazol-5-yl)amino)-1H-pyrazol-5-yl)cyclopentyl isopropylcarbamate]	142	7.8
CC1(NC(=O)O[C@H]2CC[C@@H](c3cc(Nc4ccc5c(c4Cl)CNS5(=O)=O)n[nH]3)C2)CC1 (racemic) [Example 40, cis-3-(3-((4-chloro-1,1-dioxido-2,3-dihydrobenzo[d]isothiazol-5-yl)amino)-1H-pyrazol-5-yl)cyclopentyl(1-methylcyclopropyl)carbamate]	154	2.3
CC(C)NC(=O)O[C@H]1CC[C@@H](c2cc(Nc3cc4c(cc3F)N(C3COC3)S(=O)(=O)C4)n[nH]2)C1 (relative stereo) [Example 301, cis-3-(3-((6-fluoro-1-(oxetan-3-yl)-2,2-dioxido-1,3-dihydrobenzo[c]isothiazol-5-yl)amino)-1H-pyrazol-5-yl)cyclopentyl isopropylcarbamate]	404	12
O=C(NC1CCCC1)O[C@H]1CC[C@@H](c2cc(Nc3ccc4c(c3)CS(=O)(=O)N4)n[nH]2)C1 (single isomer, unassigned) [Example 381a, cis-3-(3-((2,2-dioxido-1,3-dihydrobenzo[c]isothiazol-5-yl)amino)-1H-pyrazol-5-yl)cyclopentyl cyclopentylcarbamate]	45	1.2
C[C@H]1[C@H](O)CN1C(=O)O[C@H]1CC[C@@H](c2cc(Nc3ccc4c(c3F)CNS4(=O)=O)n[nH]2)C1 (relative stereo) [Example 145, cis-3-(3-((4-fluoro-1,1-dioxido-2,3-dihydrobenzo[d]isothiazol-5-yl)amino)-1H-pyrazol-5-yl)cyclopentyl(2S,3R)-3-hydroxy-2-methylazetidine-1-carboxylate]	267	14
CN1c2ccc(Nc3cc([C@@H]4CC[C@H](OC(=O)NC5(CO)CC5)C4)[nH]n3)c(F)c2CS1(=O)=O (relative stereo) [Example 350, cis-3-(3-((4-fluoro-1-methyl-2,2-dioxido-1,3-dihydrobenzo[c]isothiazol-5-yl)amino)-1H-pyrazol-5-yl)cyclopentyl(1-(hydroxymethyl)cyclopropyl)carbamate]	321	20
CC(C)(C)NC(=O)O[C@H]1CC[C@@H](c2cc(Nc3cc4c(cc3F)S(=O)(=O)NC4)n[nH]2)C1 (single isomer, unassigned) [Example 395b]	114	1.3
CC(C)NC(=O)O[C@@H]1CC[C@H](c2cc(Nc3ccc4c(c3)CS(=O)(=O)N4C)n[nH]2)C1 (single isomer, unassigned) [Example 220a]	56	2.6
[2H]C([2H])([2H])N1c2ccc(Nc3cc([C@@H]4CC[C@H](OC(=O)NC5(C)CC5)C4)[nH]n3)c(F)c2CS1(=O)=O (relative stereo) [Example 270, cis-3-(3-((4-fluoro-1-(methyl-d3)-2,2-dioxido-1,3-dihydrobenzo[c]isothiazol-5-yl)amino)-1H-pyrazol-5-yl)cyclopentyl(1-methylcyclopropyl)carbamate]	37	1.7
CC(C)NC(=O)O[C@H]1CC[C@@H](c2cc(Nc3ccc4c(c3)CS(=O)(=O)N4CCCO)n[nH]2)C1 (relative stereo) [Example 215, cis-3-(3-((1-(3-hydroxypropyl)-2,2-dioxido-1,3-dihydrobenzo[c]isothiazol-5-yl)amino)-1H-pyrazol-5-yl)cyclopentyl isopropylcarbamate]	30	3.1
CC(C)NC(=O)O[C@H]1CC[C@@H](c2cc(Nc3cc4c(cc3C(F)(F)F)S(=O)(=O)NC4(C)C)n[nH]2)C1 (relative stereo) [Example 21, cis-3-(3-((3,3-dimethyl-1,1-dioxido-6-(trifluoromethyl)-2,3-dihydrobenzo[d]isothiazol-5-yl)amino)-1H-pyrazol-5-yl)cyclopentyl isopropylcarbamate]	> 10000	> 10000
CC(C)NC(=O)O[C@H]1CC[C@@H](c2cc(Nc3ccc4c(c3F)S(=O)(=O)CC4)n[nH]2)C1 (relative stereo) [Example 314, cis-3-(3-((7-fluoro-1,1-dioxido-2,3-dihydrobenzo[b]thiophen-6-yl)amino)-1H-pyrazol-5-yl)cyclopentyl isopropylcarbamate]	44	1.6
CC(C)NC(=O)O[C@H]1CC[C@@H](c2cc(Nc3ccc4c(c3)S(=O)(=O)NC4=O)n[nH]2)C1 (relative stereo) [Example 16, cis-3-(3-((1,1-dioxido-3-oxo-2,3-dihydrobenzo[d]isothiazol-6-yl)amino)-1H-pyrazol-5-yl)cyclopentyl isopropylcarbamate]	385	18
CC1(NC(=O)O[C@H]2CC[C@@H](c3cc(Nc4ccc5c(c4F)CS(=O)(=O)N5C4CC4)n[nH]3)C2)CCOC1 (relative stereo) [Example 368, cis-3-(3-((1-cyclopropyl-4-fluoro-2,2-dioxido-1,3-dihydrobenzo[c]isothiazol-5-yl)amino)-1H-pyrazol-5-yl)cyclopentyl(3-methyltetrahydrofuran-3-yl)carbamate]	95	1.2
CC(C)NC(=O)O[C@H]1CC[C@@H](c2cc(Nc3c(F)cc4c(c3O)CNS4(=O)=O)n[nH]2)C1 (relative stereo) [Example 406, cis-3-(3-((6-fluoro-4-hydroxy-1,1-dioxido-2,3-dihydrobenzo[d]isothiazol-5-yl)amino)-1H-pyrazol-5-yl)cyclopentyl isopropylcarbamate]	> 10000	601
CC[C@H](C)NC(=O)O[C@H]1CC[C@@H](c2cc(Nc3ccc4c(c3F)CS(=O)(=O)N4CC(F)(F)F)n[nH]2)C1 (single isomer, unassigned) [Example 265a]	41	1.6
CC(C)NC(=O)O[C@H]1CC[C@@H](c2cc(Nc3ccc4c(c3F)CN(CCN3CCOCC3)S4(=O)=O)n[nH]2)C1 (relative stereo) [Example 112, cis-3-(3-((4-fluoro-2-(2-morpholinoethyl)-1,1-dioxido-2,3-dihydrobenzo[d]isothiazol-5-yl)amino)-1H-pyrazol-5-yl)cyclopentyl isopropylcarbamate]	458	6.3
CN1c2ccc(Nc3cc([C@@H]4CC[C@H](OC(=O)NC5(C)CC5)C4)[nH]n3)cc2CS1(=O)=O (relative stereo) [Example 223, cis-3-(3-((1-methyl-2,2-dioxido-1,3-dihydrobenzo[c]isothiazol-5-yl)amino)-1H-pyrazol-5-yl)cyclopentyl(1-methylcyclopropyl)carbamate]	35	5.5
CN1c2ccc(Nc3cc([C@@H]4CC[C@H](OC(=O)NC5COC5)C4)[nH]n3)cc2CS1(=O)=O (relative stereo) [Example 236, cis-3-(3-((1-methyl-2,2-dioxido-1,3-dihydrobenzo[c]isothiazol-5-yl)amino)-1H-pyrazol-5-yl)cyclopentyl oxetan-3-ylcarbamate]	320	47
CC(C)NC(=O)O[C@H]1CC[C@@H](c2cc(Nc3ccc4c(c3F)CN(CC3CC3)S4(=O)=O)n[nH]2)C1 (relative stereo) [Example 95, cis-3-(3-((2-(cyclopropylmethyl)-4-fluoro-1,1-dioxido-2,3-dihydrobenzo[d]isothiazol-5-yl)amino)-1H-pyrazol-5-yl)cyclopentyl isopropylcarbamate]	972	15
CC(C)NC(=O)O[C@H]1CC[C@@H](c2cc(Nc3cc4c(cc3C(F)(F)F)S(=O)(=O)NC4)n[nH]2)C1 (relative stereo) [Example 20, cis-3-(3-((1,1-dioxido-6-(trifluoromethyl)-2,3-dihydrobenzo[d]isothiazol-5-yl)amino)-1H-pyrazol-5-yl)cyclopentyl isopropylcarbamate]	> 10000	931
O=C(NC1(CO)CCC1)O[C@H]1CC[C@@H](c2cc(Nc3ccc4c(c3F)CNS4(=O)=O)n[nH]2)C1 (relative stereo) [Example 385, cis-3-(3-((4-fluoro-1,1-dioxido-2,3-dihydrobenzo[d]isothiazol-5-yl)amino)-1H-pyrazol-5-yl)cyclopentyl(1-(hydroxymethyl)cyclobutyl)carbamate]	138	1.9
CCCNC(=O)O[C@H]1CC[C@@H](c2cc(Nc3ccc4c(c3F)CN(CCO)S4(=O)=O)n[nH]2)C1 (relative stereo) [Example 126, cis-3-(3-((4-fluoro-2-(2-hydroxyethyl)-1,1-dioxido-2,3-dihydrobenzo[d]isothiazol-5-yl)amino)-1H-pyrazol-5-yl)cyclopentyl propylcarbamate]	261	8.3
CC1(NC(=O)O[C@H]2CC[C@@H](c3cc(Nc4ccc5c(c4F)CNS5(=O)=O)n[nH]3)C2)CCC1 (relative stereo) [Example 163, cis-3-(3-((4-fluoro-1,1-dioxido-2,3-dihydrobenzo[d]isothiazol-5-yl)amino)-1H-pyrazol-5-yl)cyclopentyl(1-methylcyclobutyl)carbamate]	18	0.8
